The record followed here is patent publication US20080275134A1, “Methods for Treatment of Retinal Degenerative Disease” (University of Washington, priority 2005, published 2008).

“Also recorded” adds a separate entry of the source.

Data set [1] has as its target CRALBP (Homo sapiens, UniProt P12271). As to the kind of experiment: analysis of retinoids bound to CRALBP isolated from the reaction mixture. It is filed as binding.
Data set [2] has as its system visual function (a-wave and b-wave). Briefly: single flash ERG responses of treated mice. The data set is classed as in vivo, mouse. The procedure:
A. Chromatographic separation of nonpolar retinoids from WT mouse eyes. Mice were gavaged with all-trans-Ret-NH2 24 hours prior to bleaching for 20 min at 150 cd·m^−2 W in the Ganzfeld chamber. Regeneration of 11-cis-retinal was allowed for 24 hours in the dark, and retinoids were extracted from the eye and separated by normal phase HPLC as described in Materials and Methods. The peaks were identified based on elution time and absorption spectra correspond to the following retinoids: 1, all-trans-retinyl esters; 2,2′, syn- and anti-11-cis-retinal oximes; 3, syn-all-trans-retinal oxime; 4,4′, syn- and anti-9-cis-retinal oximes; 5, all-trans-retinol. B. Changes of 11-cis-retinal oxime levels at increasing doses of all-trans-Ret-NH2 during 5 hours or 24 hours of dark adaptation. Square indicates the level of 11-cis-retinal oximes that was present in mice gavaged with vegetable oil without retinoids just after bleaching, and arrow indicates the increase of visual chromophore during 5 hours of dark adaptation. Triangles correspond to the level of 11-cis-retinal found in the mice gavaged with 50 mg/kg of 13-cis-RA. C and D. Single flash ERG responses of increasing intensity for all-trans-Ret-NH2 treated mice and control mice. Serial responses to increasing flash stimuli were obtained for all-trans-Ret-NH2 treated and control mice for selected intensities (C) and plotted as a function of a-wave and b-wave versus varying light intensities under dark-adapted conditions (D) before bleach and at 5 hours and 24 hours after bleach. The dark-adapted mice were bleached with intense constant illumination (150 cd·m^−2) for 20 min. […] SE bars are shown. […]
The conclusions derived from the analysis of retinoids of Ret-NH2-treated mice were supported by ERG analysis of visual functions. […] Next, the impact of all-trans-Ret-NH2 administration on the visual physiology of wild-type mice was evaluated in vivo with ERGs. […]

Data set [3] has as its system RAR. As to the kind of experiment: F9-RARE-lacZ reporter cell line, β-galactosidase activity (DR5 elements). It is filed as cell-based. Particulars: 24 hours treatment, micromolar concentrations. The text has this:
13-cis-RA can isomerize to all-trans-RA and then to 9-cis-RA, both of which are potent ligands of the RA receptor (RAR). 9-cis-RA also binds and activates the retinoid X receptor (RXR). This contributes to the toxicity of the RAR and RXR ligands. It was investigated whether Ret-NH2 can activate these nuclear receptor using reporter-cells as described previously (20). A β-galactosidase activity assay was employed to examine if all-trans-RA, 9-cis-RA, and Ret-NH2 are agonists for these nuclear receptors.
F9-RARE-lacZ cells express endogenous RAR and RXR and were transfected with a construct of lacZ under the control of a minimal promoter and upstream DR5 elements (1). F9-RARE-lacZ cells were treated with different doses of all-trans-RA or Ret-NH2 for 24 hours after which the cells were harvested and the β-galactosidase activity was measured using the soluble substrate o-nitrophenyl β-D-galactopyranoside. The colorless substrate was cleaved by β-galactosidase to yellow colored o-nitrophenol, whose absorbance was measured at 420 nm using a spectrophotometer. The experiment was repeated twice with similar results. The RARE reporter cell line F9-RARE-lacZ (SIL15-RA) was a kind gift from Dr. Michael Wagner (SUNY Downstate Medical Center) and Dr. Peter McCaffery (University of Massachusetts Medical School). […]

Chain of CRALBP (P12271 whole entry, species assumed): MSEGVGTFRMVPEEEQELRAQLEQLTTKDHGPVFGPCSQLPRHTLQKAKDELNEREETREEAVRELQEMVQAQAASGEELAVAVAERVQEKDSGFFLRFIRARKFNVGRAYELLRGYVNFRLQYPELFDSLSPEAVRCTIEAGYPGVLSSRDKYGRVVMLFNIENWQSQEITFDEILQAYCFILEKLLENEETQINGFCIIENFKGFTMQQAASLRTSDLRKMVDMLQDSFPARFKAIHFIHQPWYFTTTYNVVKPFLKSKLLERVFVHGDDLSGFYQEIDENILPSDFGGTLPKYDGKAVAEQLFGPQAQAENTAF

For `CC1=C(/C=C/C(C)=C/C=C/C(C)=C/CN)C(C)(C)CCC1` [Ret-NH2, Retinylamine], in data set [1], the “binding to CRALBP” value is on record as “does not bind”.

For the compound `CC1=C(/C=C/C(C)=C/C=C/C(C)=C/CN)C(C)(C)CCC1` [all-trans-Ret-NH2, all-trans-retinylamine], the “dark-adapted ERG a- and b-wave responses after bleach” value in data set [2] (50 mg/kg single dose, 20 min bleach, 5 and 24 hours after, P<0.0001 vs control) is given as “significantly attenuated”. In addition, the “light-adapted (photopic) ERG responses, cone function” value in data set [2] (50 mg/kg single dose, before and 5 and 24 hours after bleach, p>0.1 vs control) was “attenuated weakly; also recorded: not affected by all-trans-Ret-NH2 to the same extent as rod function”. Further, the “dark-adapted ERG before bleach” value in data set [2] (24 hours after 50 mg/kg gavage) is “normal waveforms and responses”. In addition, in data set [3], the “activation of transcription through RAR (DR5 RARE)” value is listed as “does not activate protein transcription”.
